The values that follow come from ChEMBL document CHEMBL1201862, “PubChem BioAssay data set” (2004).

Common to all, as to assay: NCI tumour cell line growth inhibition, 48 h
Test [1] deals with DMS-114.
Test [2] relates to DLD-1.
Test [3] concerns SNB-78.
The test system of test [4] is RXF 631.
The subject of test [5] is M19-MEL.
In test [6] the test system is LXFL 529.
Test [7] concerns XF498.
For test [8], the system named is HOP-18.
The test system of test [9] is KM-20L2.

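Cells were grown in 96-well plates and exposed to each compound for 48 hours at five concentrations; endpoints were interpolated linearly between bracketing concentrations, or set to the highest concentration if not reached. GI50: concentration for 50% inhibition of growth.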 Calls of active or inactive are those of the source. Rule as the data show it: active = GI50 up to about 1.1 µM and inactive = higher.

As for `CCOP(=O)(OCC)/C(C#N)=C/c1ccco1`, the GI50 in test [1], in test [2], in test [3], in [4], in test [5] and in test [6] was > 100 µM (inactive) each time. Besides, the GI50 in test [7] and in test [8] was > 100 µM (inactive) in each case.
Regarding `CC1(C)C(=O)/C=C\C(=O)C(C)(C)C(=O)/C=C\C(=O)C(C)(C)C(=O)/C=C\C(=O)C(C)(C)C(=O)/C=C\C1=O`, the GI50 was 14.9 µM (inactive) in [2]; 17.4 µM (inactive) in test [3]; 20.2 µM (inactive) in test [5]; 7.28 µM (inactive) in test [6]; 30.3 µM (inactive) in test [7]; 22.3 µM (inactive) in test [8]. Also, the GI50 in test [9] is 26.6 µM (inactive).
For `N=C(N)N/N=C(/c1nc2ccc([N+](=O)[O-])cc2[nH]c1=O)C(O)c1ccc([N+](=O)[O-])cc1` (centres undefined), the GI50 was 8.28 µM (inactive) in [1]; 87.3 µM (inactive) in test [2]; > 100 µM (inactive) in test [3]; > 100 µM (inactive) in test [4]; > 100 µM (inactive) in test [5]; 30.8 µM (inactive) in [6]. Further, the GI50 is 40 µM (inactive) in test [7] and 18 µM (inactive) in test [9].
Regarding `O=C(Nc1ccc(Cl)c(C(F)(F)F)c1)C(=O)C(C(=O)/C=C/c1ccccc1)C1OC(=O)c2ccccc21` (centres undefined), the GI50 in test [1] was 66.5 µM (inactive); in test [2], > 100 µM (inactive); in test [3], 64 µM (inactive); in test [5], 84.9 µM (inactive); in test [6], 57.4 µM (inactive); in test [7], > 100 µM (inactive). Also, the GI50 in test [8] and in test [9] was > 100 µM (inactive) in each case.
Consider `O=C(CSc1nnc(Cc2ccccc2)o1)Nc1ccc([N+](=O)[O-])cc1`, for which the GI50 in test [1] was 22.4 µM (inactive); in [2], > 100 µM (inactive); in test [3] it was > 100 µM (inactive); in test [5], > 100 µM (inactive); in [6], 78.2 µM (inactive); in [9], > 100 µM (inactive).
With `O=[N+]([O-])c1ccc(Cc2nc3ccccc3s2)cc1`, the GI50 in test [1] was 39.5 µM (inactive); in test [2] it was 41.6 µM (inactive); in test [3], > 100 µM (inactive); in [5] it was 71.3 µM (inactive); in [6] it was 61 µM (inactive); in test [7] it was > 100 µM (inactive). In addition, the GI50 in [8] and in test [9] was > 100 µM (inactive) throughout.
As for `CSC(C1c2ccccc2N(C)c2[nH]c(=O)n(C)c(=O)c21)S(=O)(=O)c1ccc(C)cc1` (centres undefined), the GI50 in test [1] was > 100 µM (inactive); in test [2] it was > 100 µM (inactive); in test [3] it was > 100 µM (inactive); in test [5], 40.3 µM (inactive); in [6], 56.4 µM (inactive); in test [7], > 100 µM (inactive). Also, in [8], the GI50 is > 100 µM (inactive).
In the case of `CS/C(=C(\S)c1ccccc1)c1ccccc1`, the GI50 in test [1], in test [2], in test [3], in [4], in test [5] and in [6] was > 100 µM (inactive) throughout. The figures for the GI50 in test [7], in [8] and in [9] were > 100 µM (inactive), > 100 µM (inactive) and > 31.6 µM (inactive), respectively.
Take `Cn1cc2c(n1)c(N/N=C/c1ccccc1)nn1nnnc21`: the GI50 in test [1], in [2], in [3], in [4], in test [5] and in test [6] was > 100 µM (inactive) in each case. The GI50 in [7], in [8] and in test [9] was > 100 µM (inactive) in each case.
Turning to `O=C1C2Nc3ccccc3SC2C(=O)N1c1ccccc1C(F)(F)F` (centres undefined), the GI50 in [1] was 40.7 µM (inactive); in [2], 27.3 µM (inactive); in test [3], 15.2 µM (inactive); in test [5], 46.9 µM (inactive); in test [6] it was 33.7 µM (inactive); in [7], 19.6 µM (inactive). Besides, the GI50 in test [8] is 26.4 µM (inactive).
Turning to `O=C1[C@@H]2C(c3ccccc3[N+](=O)[O-])=[N+](c3ccccc3)O[C@@H]2C(=O)N1c1ccc(Cc2ccc(N3C(=O)[C@H]4C(c5ccccc5[N+](=O)[O-])=[N+](c5ccccc5)O[C@H]4C3=O)cc2)cc1`, the GI50 in test [1] is > 100 µM (inactive); in [2] it was > 100 µM (inactive); in test [3] it was > 100 µM (inactive); in test [5], > 100 µM (inactive); in test [6] it was 94.6 µM (inactive); in test [8], 85.9 µM (inactive). For the same compound, in [9], the GI50 is > 100 µM (inactive).
Regarding `O=c1c2ccccc2nc(-c2ccccc2)n1NC(=S)Nc1cccc(Cl)c1`, the GI50 in test [1] was 67.3 µM (inactive); in [2], > 100 µM (inactive); in [5] it was > 100 µM (inactive); in [6] it was > 100 µM (inactive); in [8] it was > 100 µM (inactive).
`C/C(=N/NC(N)=S)C(CN1CCOCC1)C(C1=C(O)c2ccccc2OC1)c1ccccc1` (centres undefined): the GI50 in [2], in [3], in test [5], in test [6], in [7] and in test [8] was > 100 µM (inactive) throughout. The GI50 in [9] was > 100 µM (inactive).
Take `COc1ccc(NCC#N)cc1`: the GI50 in test [1], in [2], in test [3], in test [4], in [5] and in [6] was > 100 µM (inactive) throughout. Further, the GI50 in [7], in test [8] and in test [9] was > 100 µM (inactive) throughout.
`COC(=O)NN=C1C(C)(C)C(=O)C1(C)C`: the GI50 in test [2], in [3], in test [4], in [6], in [7] and in test [9] was > 100 µM (inactive) each time.
With `COc1cccc(NC(=O)CC(=O)N2NC(c3ccccc3)C(/N=N/c3cccc(C(=O)O)c3)C2=O)c1` (centres undefined), the GI50 was > 100 µM (inactive) in [1]; > 100 µM (inactive) in test [2]; > 100 µM (inactive) in test [3]; > 100 µM (inactive) in [5]; 85.1 µM (inactive) in test [6]; > 100 µM (inactive) in test [7]. Further, the GI50 is < 0.01 µM (active) in [8] and > 100 µM (inactive) in test [9].
Take `CC1(C)OC(=O)C(C#N)=C1/C=C/c1coc2ccc(Cl)cc2c1=O`: the GI50 in [1] is 34.8 µM (inactive); in test [2] it was 23.1 µM (inactive); in test [3], 33.8 µM (inactive); in [4] it was 38.8 µM (inactive); in test [5], 41.2 µM (inactive); in [6], 27.9 µM (inactive). Besides, the GI50 in test [9] was 42.2 µM (inactive).
Turning to `O/N=N/c1cnccn1`, the GI50 in test [1] is 929 µM (inactive); in test [2] it was > 1250 µM (inactive); in [3], > 918 µM (inactive); in [5] it was > 1250 µM (inactive); in test [8], > 1250 µM (inactive); in test [9], > 1250 µM (inactive).
`O=C(/C=N/c1ccccc1C(=O)[O-])c1cccs1.O=C(/C=N/c1ccccc1C(=O)[O-])c1cccs1.[Zn+2]`: the GI50 is 39.9 µM (inactive) in test [2], > 100 µM (inactive) in test [8] and > 100 µM (inactive) in [9].
Consider `COC(=O)/C=C1\CCC2[C@@H](C(=O)CC3[C@]2(C)CCC[C@@]3(C)C(=O)OC)C1C` (some centres undefined), for which the GI50 is 16.1 µM (inactive) in [1]; 29.2 µM (inactive) in test [2]; 29.2 µM (inactive) in [3]; 25.4 µM (inactive) in [4]; 19.2 µM (inactive) in test [5]; 8.73 µM (inactive) in test [6]. For the same compound, the GI50 in test [7] was 13.7 µM (inactive); in test [8] it was 29.4 µM (inactive); in test [9], 29.3 µM (inactive).
